These results are taken from US4686231A, “Inhibition of 5-lipoxygenase products” (SmithKline Beckman Corporation, priority 1986, dated 1987).

The target in test [1] is T1, 5-lipoxygenase (Rattus norvegicus, UniProt P12527).
T1 construct: The activities of these enzymes in extracts of RBL-1 cells were assayed; host or cells: RBL-1 cells, supernatant of broken cell extract
T1 sequence (P12527 1-673): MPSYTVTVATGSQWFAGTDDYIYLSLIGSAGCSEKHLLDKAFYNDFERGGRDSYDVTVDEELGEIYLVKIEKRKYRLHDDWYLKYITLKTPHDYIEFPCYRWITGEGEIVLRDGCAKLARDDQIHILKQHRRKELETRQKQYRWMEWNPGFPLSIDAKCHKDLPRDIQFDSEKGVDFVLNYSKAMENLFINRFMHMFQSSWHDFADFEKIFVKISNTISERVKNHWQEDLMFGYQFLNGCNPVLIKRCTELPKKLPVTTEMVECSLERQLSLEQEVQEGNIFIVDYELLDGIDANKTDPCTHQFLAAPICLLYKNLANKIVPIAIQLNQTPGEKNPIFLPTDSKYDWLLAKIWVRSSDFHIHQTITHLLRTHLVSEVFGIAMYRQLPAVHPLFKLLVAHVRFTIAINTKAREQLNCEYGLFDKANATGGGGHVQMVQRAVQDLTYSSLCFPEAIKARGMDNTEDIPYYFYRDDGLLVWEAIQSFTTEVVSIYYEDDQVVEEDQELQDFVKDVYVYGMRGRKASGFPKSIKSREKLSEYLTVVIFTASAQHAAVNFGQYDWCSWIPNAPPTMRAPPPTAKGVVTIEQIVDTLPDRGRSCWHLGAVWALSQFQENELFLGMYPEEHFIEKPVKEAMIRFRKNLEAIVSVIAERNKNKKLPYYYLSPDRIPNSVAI
In words: 5-lipoxygenase activity: 5-HETE production by RBL-1 high speed supernatant. The format is biochemical. The note with it: RBL1 high speed supernatant; read-out: 5LO IC50 (5-HETE Production). How it is done: (§1) For in vitro experiments, compounds were dissolved at appropriate concentrations in ethanol (final concentration μ1.0%) and then diluted to final concentrations using the buffers indicated in the text.
(§2) The activities of these enzymes in extracts of RBL-1 cells were assayed using the method of Jakschik and Lee, Nature, 287, 51-52 (1980). RBL-1 cells were obtained from the American Type Culture Collection (#CRL 1378) and were grown at 37° C. (5% CO2 in air) in spinner culture in MEM supplemented with 10% heat inactivated fetal calf serum. Harvested cells were washed with 50 mM sodium phosphate buffer, pH 7.0, containing 1 mM EDTA and 0.1% galatin, resuspended in fresh buffer (5×10^7 cells/ml) and disrupted by nitrogen cavitation using the Parr bomb at 750 psi for 10 min. The broken cell extract was then centrifuged at 10,000×g for 60 minutes (min). Aliquots (0.25 mls) of the supernatant were preincubated with or without drugs for 10 min, after which 10 μl CaCl2 (2 mM) of 2.5 mM arachidonic acid-1-^14 C (final concentration was […]; specific activity 20,000 dpm/nmole). After incubation for 5 min at […], the reaction was terminated by addition of 2 volumes (0.5 ml) ice cold acetone and the sample was allowed to deproteinize on ice for 10 min prior to centrifugation at 1,000×gfor 10 min. The deproteinized supernatant was adjusted to pH 3.5 with 2N formic acid and extracted with 2 volumes of ice cold ethyl acetate. The extracted samples were dried under argon, redissolved in ethyl acetate and applied to Whatman LK5D thin layer chromatography (TLC) plates which were developed using the A-9 solvent system [organic phase of ethyl acetate:2,2,5-trimethylpentane:acetic acid:water (110:50:20:10)] described by Hamberg and Samuelsson, J. Bio. Chem., 241, 257-263 (1966). Arachidonic acid, 5-HETE, LTB4 and PGD2 were quantified with a Berthold LB 2832 autoscanner.
(§3) Drug-induced effects on enzyme activities are described as the concentration of drug causing a 50% inhibition of metabolite synthesis (IC50).

Test [2] has as its target T1, 5-lipoxygenase. In words: 5-lipoxygenase activity: LTB4 production by RBL-1 high speed supernatant. Type of test: biochemical. The note with it: for IC50: RBL1 high speed supernatant, read-out: 5LO IC50 (LTB4 Production). How it is done:
as §1, §2, §3

The subject of test [3] is LTC4 production by human monocytes. Description: LTC4 production by human monocytes. The format is cell-based. As to conditions: Monocyte, A23187-stimulated, 3 hours, drug added 30 minutes prior. How it is done:
as §1
One of the compounds of Formula (I), i.e., Compound Number 8 from Table 1, was evaluated for its ability to inhibit the production of LTC4 by human monocytes according to the following protocol.
Human monocytes were prepared from whole blood supplied by the American Red Cross. The blood was fractionated by a two-step procedure employing sedimentation on Ficoll followed by sedimentation on Percoll. The mononuclear cell fraction recovered was composed of 80-90% monocytes with the remainder of the cells being predominant lymphocytes. The monocytes were plated at 1×10^6 cells per well in a Costar 24 well tissue culture plat and allowed to adhere for one hour at 37° C. Non-adherent cells were removed by washing. The cells were stimulated with […] of A23187 calcium ionophore for 3 hours at 37° C. to induce LTC-4 produced when drugs were evaluated. They were added to the cells 30 minutes prior to the A23187. Supernatants were collected, clarified by centrifugation and store frozed at -20° C. until assay. The LTC-4 content was determined by using a New England Nuclear Leukotriene C-4 (^3 H) RIA Kit as per instructions.

Test [4] deals with Arachidonic acid-induced ear swelling. In words: Arachidonic acid-induced mouse ear inflammation (ear swelling). The format is in vivo, male Balb/c mice. As to conditions: for antiinflammatory activity (mouse ear edema): p.o. How it is done:
In the following Examples male Balb/c mice (20-28 g) were used. All mice were obtained from Charles River Breeding Laboratories, Kingston, N.Y. Within a single experiment, mice were sex and age matched.
The compounds of Formula (I), indomethacin, naproxen, and ibuprofen were each used as the free base. The compounds were homogenized in 0.5% tagacanth. Compounds were administered by gavage at the indicated dose in a final volume of 10 ml/kg. The compounds of Formula (I) were solubilized in dimethylacetamide and diluted with olive oil for subcantaneous administration.
Arachidonic acid in acetone (2 mg/20 μl) was applied to the inner surface of the left ear. The thickness of both ears was then measured with a dial micrometer one hour after treatment, and the […] were expressed as the change in thickness (10^-3 cm) between treated and untreated ears.
Test compounds were given orally in 0.5% tragacanth at the times indicated in the text prior to the topical application of arachidonic acid.
Parenteral administration of compound was accomplished by subcutaneous injection of solution as indicated.

For test [5] the test system is unchanged. The description is as above. Type of test: in vivo, male Balb/c mice.
Test [6] relates to LTB4 and 5-HETE production. As to conditions: in vitro; cited from earlier work.
The next test relates to rheumatoid arthritis. The note with it: preliminary observation; cited from earlier work.
A further test has as its system psoriasis. The note with it: in vivo; cited from earlier work.
The subject of the next test is lipoxygenase. The note with it: in vitro; cited from earlier work.
Test [7] relates to area of infarction following coronary occlusion. As to conditions: dogs; cited from earlier work.
The mark [8] stands for this setting: 50 mg/kg s.c. or i.p., 2 mg arachidonic acid, 1 hour, * p .05, ** p .01, *** p .001.

For the compound `Fc1ccc(-c2[nH]c(S)nc2-c2ccncc2)cc1` [Compound 8], the IC50 – broadly, the concentration needed to halve the response being measured – at 5-lipoxygenase [1] amounted to 17 µM; on 5-lipoxygenase [2], 1.5 µM; in test [3], 0.8 µM.
Turning to `CC(C)Cc1ccc(C(C)C(=O)O)cc1` (centres unmarked) [ibuprofen, reference compound], the “antiinflammatory activity (mouse ear edema)” value (from here on “antiinflammatory activity”) in test [4] (250 mg/kg) is “did not exhibit detectable antiinflammatory activity”.
Consider `O=S(=O)(c1nc(-c2ccc(F)cc2)c(-c2ccc(F)cc2)[nH]1)C(F)(F)C(F)F` [Compound 2], for which the “% Inhibition of Ear Swelling” value in [4] (setting [8]) turned out to be 41%. In addition, the figures for the IC50 at 5-lipoxygenase [1] and on 5-lipoxygenase [2] were 16 µM and 6.6 µM, respectively.
Turning to `Fc1ccc(-c2[nH]c(SC(F)(F)C(F)F)nc2-c2ccncc2)cc1` [Compound 9], the IC50 on 5-lipoxygenase [1] came out at 95 µM.
Turning to `COc1ccc2c(c1)c(CC(=O)O)c(C)n2C(=O)c1ccc(Cl)cc1` [indomethacin, reference compound], in test [4] (10 mg/kg), the “antiinflammatory activity” value is “did not exhibit detectable antiinflammatory activity”. In addition, the “reduction of inflammation (mouse ear model)” value in test [4] (arachidonic acid-induced) is on record as “did not reduce inflammation or cell infiltration”. For the same compound, the “inhibition of 5-lipoxygenase products (RBL-1 extract)” value at 5-lipoxygenase [2] (concentrations up to 10^-4 M) was “inactive”. Further, the “reduction of cell infiltration (mouse ear model)” value in [5] is “did not reduce inflammation or cell infiltration”.
With `COc1ccc(-c2nc(SC)n(C)c2-c2ccc(OC)cc2)cc1` [Compound 1], in [4] (setting [8]), the “% Inhibition of Ear Swelling” value was determined as 51%. The IC50 at 5-lipoxygenase [1] and on 5-lipoxygenase [2] was 13 µM each time.
In the case of `N#CNc1nc(-c2ccc(F)cc2)c(-c2ccc(F)cc2)[nH]1` [Compound 5, 4,5-Bis(4-fluorophenyl)-2-cyanamido-imidazole or 4,5-Bis(4-fluorophenyl)-2-amino-1-cyano-imidazole], the “% Inhibition of Ear Swelling” value in test [4] (setting [8]) was found to be 59%. For the same compound, the half-inhibitory concentration (IC50) came to 8 µM on 5-lipoxygenase [1] and 1 µM at 5-lipoxygenase [2].
For `COc1ccc(-c2nc(NC#N)[nH]c2-c2ccc(OC)cc2)cc1` [Compound 4, 4,5-Bis(4-methoxyphenyl)-2-cyanamido-imidazole or 4,5-Bis(4-methoxyphenyl)-2-amino-1-cyano-imidazole], the “% Inhibition of Ear Swelling” value in test [4] (setting [8]) was 46%. Also, the IC50 on 5-lipoxygenase [1] was 3.1 µM; on 5-lipoxygenase [2], 1.5 µM.
Turning to `COc1ccc2cc([C@H](C)C(=O)O)ccc2c1` [naproxen, reference compound], the “antiinflammatory activity” value in [4] (100 mg/kg) is given as “did not exhibit detectable antiinflammatory activity”.
Take `O=C(O)c1cc(/N=N/c2ccc(S(=O)(=O)Nc3ccccn3)cc2)ccc1O` [sulfasalazine]: the “inhibition of LTB4 and 5-HETE production” value in [6] is “inhibit LTB4 and 5-HETE production in vitro”. Further, the “efficacy in rheumatoid arthritic patients” value with rheumatoid arthritis is reported as “efficacy, including remission”.
Take `CC(C(=O)O)c1ccc2oc(-c3ccc(Cl)cc3)nc2c1` (centres unmarked) [benoxaprofen]: in the test with psoriasis, the effect on psoriasis result is recorded as “promising effect”. Also, the lipoxygenase inhibitory activity entry in the test on lipoxygenase was “in vitro lipoxygenase inhibitory activity”.
Consider `CCSc1nc(-c2ccc(OC)cc2)c(-c2ccc(OC)cc2)n1CC` [Compound 3], for which the values for the IC50 at 5-lipoxygenase [1] and on 5-lipoxygenase [2] were 10.4 µM and 8.4 µM, respectively.
As to `COc1ccc(-c2nc(C(F)(F)F)[nH]c2-c2ccc(OC)cc2)cc1` [Compound 6], the “% Inhibition of Ear Swelling” value in test [4] (50 mg/kg, oral dosing (p.o.), ** p .01) came out at 28%. Moreover, the IC50 stood at 0.7 µM on 5-lipoxygenase [1] and 1.1 µM on 5-lipoxygenase [2].
`NC1=NN(c2cccc(C(F)(F)F)c2)CC1` [BW755-C]: the “area of infarction following coronary occlusion” value in [7] was “reduced”.
As to `Fc1ccc(-c2nc(-c3ccc(F)cc3)c(-c3ccc(F)cc3)[nH]2)cc1` [Compound 7], the “% Inhibition of Ear Swelling” value in test [4] (setting [8]) amounted to 15%. For the same compound, the IC50 on 5-lipoxygenase [1] and at 5-lipoxygenase [2] was 10 µM throughout.
